Test results: patent US20070219186A1, “Pyrazolo[1,5-A]pyrimidine derivatives and methods of use thereof” (priority 2006, published 2007)
Like-named read-outs stand apart in the source and are kept apart here.

Biological target: T1, human B-Raf (Homo sapiens, UniProt P15056)
T1 construct: Flag; GST; made in house; host or cells: Sf9 insect cells (B-Raf); E. coli (MEK1-GST)
Assay: B-Raf Kinase to MEK1 ELISA
Type: biochemical
Details: for inhibition at 10 µM: read-out: % Inhib./10 uM
Source text: TITLE: B-Raf Kinase to MEK1 ELISA
PURPOSE: To discover B-Raf Kinase inhibitors that can inhibit growth of tumor cells which contain oncogenic forms of Receptor Tyrosine Kinases or K-Ras, or B-Raf kinase.
Reagents: Flag/GST-tagged recombinant human B-Raf produced in Sf9 insect cells, human non-active Mek-1-GST (recombinant protein produced in E. coli); and a phospho-MEK1 specific poly-clonal Ab from Cell Signaling Technology (cat. #9121).
B-Raf1 Kinase Assay Procedure:
B-Raf-1 is used to phosphorylate GST-MEK1. MEK1 phosphorylation is measured by a phospho-specific antibody (from Cell Signaling Technology, cat. #9121) that detects phosphorylation of two serine residues at positions 217 and 221 on MEK1.
B-Raf Assay Stock Solutions:
1. Assay Dilution Buffer (ADB): 20 mM MOPS, pH 7.2, 25 mM β-glycerol phosphate, 5 mM EGTA, 1 mM sodium orthovanadate, 1 mM dithiothreitol.
2. Magnesium/ATP Cocktail: 200 μM cold ATP and 40 mM magnesium chloride in ADB.
3. Active Kinase: Active B-Raf: used at ˜20 ng per assay point.
4. Non-active GST-MEK1: Use at 100 nM (50 nM final).
6. Anti-GST Ab (Pharmacia)
7. Anti-rabbit Ab/Europium conjugate (Wallac)
1. Add 25 μl of ADB containing B-Raf and Mek per assay (i.e. per well of a 96 well plate)
2. Add 25 μl of 0.2 mM ATP and 40 mM magnesium chloride in ADB.
3. Incubate for 60 minutes at RT in a shaking incubator.
4. Transfer this mixture to an anti-GST Ab coated 96 well plate (Nunc Immunosorb plates coated o/n with a-GST.
5. Incubate for 60 minutes at 30° C. in a shaking incubator
6. Wash 3× with TBST, add Anti-Phospho MEK1 (1:1000)
7. Incubate for 60 minutes at 30° C. in a shaking incubator
8. Wash 3× with TBST, add Anti-rabbit Ab/Europium conjugate (Wallac) (1:500)
9. Incubate for 60 minutes at 30° C. in a shaking incubator
10. Add 100 ul of Wallac Delfia Enhancement Solution and shake for 10 minutes.
11. Read plates in Wallac Victor model Plate Reader.
12. Collect data analyze in Excel for single point and IC50 determinations.
Typically Raf-1 assay is run at cpd concentrations from 10 μM to 30 nM in half log dilutions. (% inhibition is determined for each cpd concentration)

[1] = median, cpd concentrations from 10 μM to 30 nM in half log dilutions, read-out: Median IC50

T1 sequence (P15056 whole entry): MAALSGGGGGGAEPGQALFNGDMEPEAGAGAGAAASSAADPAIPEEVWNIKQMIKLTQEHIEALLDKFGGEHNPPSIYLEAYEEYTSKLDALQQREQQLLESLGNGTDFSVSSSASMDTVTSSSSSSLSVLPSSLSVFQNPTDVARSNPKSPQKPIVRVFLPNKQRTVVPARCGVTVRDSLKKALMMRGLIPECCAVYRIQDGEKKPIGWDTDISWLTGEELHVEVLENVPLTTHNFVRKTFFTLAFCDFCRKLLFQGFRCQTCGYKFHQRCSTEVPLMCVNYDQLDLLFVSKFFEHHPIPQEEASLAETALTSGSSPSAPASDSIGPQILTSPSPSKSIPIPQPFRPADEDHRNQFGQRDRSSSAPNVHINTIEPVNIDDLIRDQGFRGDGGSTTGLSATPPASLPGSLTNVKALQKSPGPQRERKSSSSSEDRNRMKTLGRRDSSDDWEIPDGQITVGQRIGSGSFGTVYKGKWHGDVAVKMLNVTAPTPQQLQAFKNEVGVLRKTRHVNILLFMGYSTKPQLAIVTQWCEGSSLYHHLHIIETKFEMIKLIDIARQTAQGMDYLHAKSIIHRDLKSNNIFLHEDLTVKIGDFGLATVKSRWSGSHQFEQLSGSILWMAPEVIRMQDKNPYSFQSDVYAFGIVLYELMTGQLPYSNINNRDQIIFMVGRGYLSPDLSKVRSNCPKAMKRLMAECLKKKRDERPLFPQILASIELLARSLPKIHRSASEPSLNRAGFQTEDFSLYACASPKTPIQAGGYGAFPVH

Row | SMILES | IC50 [1] [nM] | inhibition at 10 µM [%] | IC50 [nM] | inhibition at 10 µM (single point assay, 10 uM) [%]
1 | Cc1ccc(C(=O)Nc2cccc(-c3ccnc4c(-c5cccc(C#N)c5)cnn34)c2)cc1C(F)(F)F [Example 182, N-{3-[3-(3-cyanophenyl)pyrazolo[1,5-a]pyrimidin-7-yl]phenyl}-4-methyl-3-(trifluoromethyl)benzamide] | > 10000 | 29 | – | –
2 | CCOC(=O)c1cnn2c(-c3cccc(NC(=O)Nc4ccc(C)c(C(F)(F)F)c4)c3)ccnc12 [Example 79, ethyl 7-{3-[({[4-methyl-3-(trifluoromethyl)phenyl]amino}carbonyl)amino]phenyl}pyrazolo[1,5-a]pyrimidine-3-carboxylate] | 370 | 88 | – | –
3 | CCN(CC)CCNC(=O)c1cnn2c(-c3cccc(NC(=O)Nc4ccc(Cl)c(C(F)(F)F)c4)c3)ccnc12 [Example 122, 7-{3-[({[4-chloro-3-(trifluoromethyl)phenyl]amino}carbonyl)amino]phenyl}-N-[2-(diethylamino)ethyl]pyrazolo[1,5-a]pyrimidine-3-carboxamide] | – | 83 | 140 | –
4 | COC[C@H]1CCCN1c1cc2nccc(-c3cccc(NC(=O)c4cccc(C(F)(F)F)c4)c3)n2n1 [Example 210, N-(3-{2-[(2R)-2-(methoxymethyl)pyrrolidin-1-yl]pyrazolo[1,5-a]pyrimidin-7-yl}phenyl)-3-(trifluoromethyl)benzamide] | 2500 | 52 | – | –
5 | O=C(Nc1cccc(-c2ccnc3c(C(=O)Oc4cccnc4)cnn23)c1)c1cccc(C(F)(F)F)c1 [Example 126, pyridin-3-yl 7-(3-{[3-(trifluoromethyl)benzoyl]amino}phenyl)pyrazolo[1,5-a]pyrimidine-3-carboxylate] | > 10000 | 17 | – | –
6 | CCOC(=O)c1cnn2c(-c3ccc(Cl)c(NC(=O)c4cccc(C(F)(F)F)c4)c3)ccnc12 [Example 86, ethyl 7-(4-chloro-3-{[3-(trifluoromethyl)benzoyl]amino}phenyl)pyrazolo[1,5-a]pyrimidine-3-carboxylate] | > 10000 | 18 | – | –
7 | O=C(Cc1c[nH]cn1)Nc1ccc(-c2cnn3c(-c4cccc(NC(=O)c5cccc(C(F)(F)F)c5)c4)ccnc23)cc1 [Example 232, N-[3-(3-{4-[(1H-imidazol-4-ylacetyl)amino]phenyl}pyrazolo[1,5-a]pyrimidin-7-yl)phenyl]-3-(trifluoromethyl)benzamide] | 174 | 99 | – | –
8 | O=C(Nc1cccc(-c2ccnc3c(C(=O)NCCN4CCOCC4)cnn23)c1)Nc1ccc(Cl)c(C(F)(F)F)c1 [Example 123, 7-{3-[({[4-chloro-3-(trifluoromethyl)phenyl]amino}carbonyl)amino]phenyl}-N-(2-morpholin-4-ylethyl)pyrazolo[1,5-a]pyrimidine-3-carboxamide] | – | 93 | 120 | –
9 | CN(C)CCCc1cc2nccc(-c3cccc(NC(=O)c4cccc(C(F)(F)F)c4)c3)n2n1 [Example 110, N-(3-{2-[3-(dimethylamino)propyl]pyrazolo[1,5-a]pyrimidin-7-yl}phenyl)-3-(trifluoromethyl)benzamide] | > 10000 | 24 | – | –
10 | CN(C)CCCNc1cc(-c2cc3nccc(-c4cccc(NC(=O)c5cccc(C(F)(F)F)c5)c4)n3n2)ccn1 [Example 257, N-{3-[2-(2-{[3-(dimethylamino)propyl]amino}pyridin-4-yl)pyrazolo[1,5-a]pyrimidin-7-yl]phenyl}-3-(trifluoromethyl)benzamide] | 74.5 | 97 | – | –
11 | CCOC(=O)c1cnn2c(-c3cccc(NC(=O)c4ccc(Cl)c(Cl)c4)c3)ccnc12 [Example 71, ethyl 7-{3-[(3,4-dichlorobenzoyl)amino]phenyl}pyrazolo[1,5-a]pyrimidine-3-carboxylate] | > 10000 | 0 | – | –
12 | CCOC(=O)c1cnn2c(-c3cccc(NC(=O)Nc4ccccc4C(F)(F)F)c3)ccnc12 [Example 39, ethyl 7-{3-[({[2-(trifluoromethyl)phenyl]amino}carbonyl)amino]phenyl}pyrazolo[1,5-a]pyrimidine-3-carboxylate] | > 10000 | – | – | 14
13 | CCOC(=O)c1cnn2c(-c3cccc(NC(=O)c4cccn4C)c3)ccnc12 [Example 215, ethyl7-(3-{[(1-methyl-1H-pyrrol-2-yl)carbonyl]amino}phenyl)pyrazolo[1,5-a]pyrimidine-3-carboxylate] | > 10000 | 0 | – | –
14 | CCOC(=O)c1cnn2c(-c3cccc(NC(=O)c4ccc(C)s4)c3)ccnc12 [Example 221, ethyl7-(3-{[(5-methyl-2-thienyl)carbonyl]amino}phenyl)pyrazolo[1,5-a]pyrimidine-3-carboxylate] | 9700 | 65 | – | –
15 | O=C(Nc1cccc(-c2ccnc3c(-c4ccc(CN5CCCC5)cc4)cnn23)c1)c1cccc(C(F)(F)F)c1 [Example 315, N-(3-{3-[4-(pyrrolidin-1-ylmethyl)phenyl]pyrazolo[1,5-a]pyrimidin-7-yl}phenyl)-3-(trifluoromethyl)benzamide] | – | 102 | 20.5 | –
16 | CCOC(=O)c1cnn2c(-c3cccc(NC(=O)c4ccccc4)c3)ccnc12 [Example 3, Pyrazolo[1,5-a]pyrimidine-3-carboxylic acid, 7-[3-(benzoylamino)phenyl]-, ethyl ester] | > 20000 | 4 | – | –
17 | Cc1ccc(C(=O)Nc2cccc(-c3ccnc4cc(-c5ccncc5)nn34)c2)cc1 [Example 148, 4-methyl-N-[3-(2-pyridin-4-ylpyrazolo[1,5-a]pyrimidin-7-yl)phenyl]benzamide] | > 10000 | 20 | – | –
18 | CCOC(=O)c1cnn2c(-c3cccc(NC(=O)Nc4ccc(C#N)cc4)c3)ccnc12 [Example 38, ethyl 7-[3-({[(4-cyanophenyl)amino]carbonyl}amino)phenyl]pyrazolo[1,5-a]pyrimidine-3-carboxylate] | > 10000 | 20 | – | –
19 | CCOC(=O)c1cnn2c(-c3cccc(NC(=O)Nc4cc(C)no4)c3)ccnc12 [Example 247, ethyl7-[3-({[(3-methylisoxazol-5-yl)amino]carbonyl}amino)phenyl]pyrazolo[1,5-a]pyrimidine-3-carboxylate] | > 10000 | 15 | – | –
20 | Cc1ccc(C(=O)Nc2cccc(-c3ccnc4c(-c5ccccn5)cnn34)c2)cc1C(F)(F)F [Example 65, 4-methyl-N-[3-(3-pyridin-2-ylpyrazolo[1,5-a]pyrimidin-7-yl)phenyl]-3-(trifluoromethyl)benzamide] | > 10000 | 30 | – | –
21 | O=C(Nc1cccc(-c2ccnc3c(C(=O)O)cnn23)c1)c1cccc(C(F)(F)F)c1 [Example 32, 7-(3-{[3-(trifluoromethyl)benzoyl]amino}phenyl)pyrazolo[1,5-a]pyrimidine-3-carboxylic acid] | > 10000 | 29 | – | –
22 | CC(O)c1ccccc1-c1cnn2c(-c3cccc(NC(=O)c4cccc(C(F)(F)F)c4)c3)ccnc12 (stereo not drawn) [Example 303, N-(3-{3-[2-(1-hydroxyethyl)phenyl]pyrazolo[1,5-a]pyrimidin-7-yl}phenyl)-3-(trifluoromethyl)benzamide] | 288 | 80 | – | –
23 | COc1cccc(C(=O)Nc2cccc(-c3ccnc4cc(-c5ccncc5)nn34)c2)c1 [Example 146, 3-methoxy-N-[3-(2-pyridin-4-ylpyrazolo[1,5-a]pyrimidin-7-yl)phenyl]benzamide] | – | – | 4000 | –
24 | COc1ccc(C(=O)Nc2cccc(-c3ccnc4c(-c5ccncc5)cnn34)c2)cc1C(F)(F)F [Example 189, 4-methoxy-N-[3-(3-pyridin-4-ylpyrazolo[1,5-a]pyrimidin-7-yl)phenyl]-3-(trifluoromethyl)benzamide] | – | 83 | 360 | –
25 | O=C(Nc1cccc(-c2ccnc3cc(O)nn23)c1)c1cccc(C(F)(F)F)c1 [Example 250, N-[3-(2-hydroxypyrazolo[1,5-a]pyrimidin-7-yl)phenyl]-3-(trifluoromethyl)benzamide] | > 10000 | 16 | – | –
26 | O=C(Nc1cccc(-c2ccnc3c(-c4cccnc4)cnn23)c1)c1cccc(C(F)(F)F)c1 [Example 155, N-[3-(3-pyridin-3-ylpyrazolo[1,5-a]pyrimidin-7-yl)phenyl]-3-(trifluoromethyl)benzamide] | – | 103 | 95 | –
